Consider one compound from article PMC3006138, “Fexinidazole – A New Oral Nitroimidazole Drug Candidate Entering Clinical Development for the Treatment of Sleeping Sickness” (PLoS Neglected Tropical Diseases, 2010).

Series [1] in a line: Hepatocyte intrinsic clearance and metabolite profile. The series is classed as in vitro ADME, rat. As to conditions: male, Sprague Dawley, rat, cryopreserved hepatocytes, 1 µM. The procedure:
Fexinidazole was incubated with cryopreserved hepatocytes from male CD-1 mice, male Sprague Dawley rats, male beagle dogs, male cynomolgus monkeys, and from pooled white or African-American human donor samples (purchased commercially), at concentrations of 1 µM and 10 µM. […] The incubated samples were analyzed by LC-MS after extraction into acetonitrile.
A quality control analysis of fexinidazole was performed via 1H-NMR in DMSO and LC- […]
provided by the Swiss Tropical Institute (Basel, Switzerland).
Reagents and solvents were of analytical grade and obtained from Sigma-Aldrich (St. Louis, […]
Cryopreserved hepatocytes from the male CD1 mouse, lot CSI; male Sprague Dawley rat, lot LPL; male beagle dog, lot BWX; male cynomolgus monkey, lot EHH; and pooled human samples, lot MJI, were purchased from In Vitro Technologies Inc (Baltimore, Maryland, […]
5.4. In vitro Incubations
On the day of the experiment a 10 mM stock solution of fexinidazole in DMSO was prepared and, within 3 hours, aliquots of this freshly prepared solution, after suitable dilution, were added to the incubation matrix, to reach fexinidazole final concentrations of 1 and 10 µM. The final percentage of DMSO was 0.01% in the incubation samples for the […]
On the day of experiment, the cryopreserved hepatocytes were thawed following the detailed instructions provided by the supplier.
The number of viable cells was determined using a Trypan Blue exclusion method.
5.4.1. Intrinsic Clearance Study […]
µM with mouse, rat, dog, monkey and human hepatocytes (300000 cells/mL for the mouse and 1 million cells/mL for the other species) in a final incubation volume of 0.75 mL […]
Incubations were performed in duplicate in a 48-well plate under shaking. Sampling was performed using an automatic liquid handling system (Multiprobe II EX, Packard). At 0, 1, 5, 10, 15, 20, 30, 60 and 120 minutes, 50 µL aliquots of the incubates were taken, then 80 µL of ice-cold acetonitrile and 20 µL of 1 µM warfarin in acetonitrile (internal standard) were added, and samples centrifuged at 2000 rpm for 20 min. The supernatant was analyzed by LC-MS/MS. […]
the medium alone at t = 0 and 120 minutes.
For the determination of phase I and phase II activity of hepatocytes, 7-ethoxycoumarin (7-EC) 1 µM, and 7-hydroxycoumarin (7-HC) 30 µM were used as positive controls and incubated under the same conditions as fexinidazole. Aliquots of incubates were taken at 0, 10, 20, 30, 60 and 120 minutes and processed as fexinidazole samples.
5.4.2. Metabolite Profile Study
For metabolite profiling, fexinidazole was incubated at a concentration of 10 µM with mouse, rat, dog, monkey and human hepatocytes (300000 cells/mL for the mouse and 1 million cells/mL for the other species) in a final incubation volume of 2 mL Leibovitz L-15 […]
Aliquots of the incubation samples were taken at t = 0, 30 and 120 minutes; the metabolism was stopped by the addition of an equal volume of cold acetonitrile and the samples centrifuged at 1500 rpm for 20 min. The supernatant was stored at -20°C until analysis. Control incubations were performed with the compound in the medium alone […]
5.5. Analysis of Samples for Intrinsic Clearance Determination
The analysis of the samples for intrinsic clearance determination was performed by an LC-MS/MS method, using the following conditions:
HPLC Equipment and Conditions
HPLC system Agilent 1100 binary pump (Agilent, Palo Alto, USA)
Autosampler CTC Pal (Alfatech, San Jose, USA)
Analytical column Guard Column SB-C8 4.6 x 12.5 mm, 5 µm (Zorbax)
Column temperature ambient
Mobile phase A 10 mM ammonium formate pH 4.0: acetonitrile (95:5, v:v)
Mobile phase B 10 mM ammonium formate pH 4.0: acetonitrile (5:95, v:v) […]
Gradient conditions Step Total time (min) flow (µL/min) %A % B […]
MS Equipment and Conditions
Mass spectrometer API 4000 Triple Quadrupole (MDS-Sciex, Toronto, […]
Source Turbo Ion Spray (TIS)
Ion mode Positive for fexinidazole and 7-EC.
Negative for 7-HC, 7-HC sulphate and 7-HC glucuronide.

In another series the target is CYP1A2 (Homo sapiens, UniProt P05177). As to the kind of experiment: In vitro CYP-450 metabolism. It is filed as in vitro ADME. As to conditions: 1.0 µM, up to 60 min. The method, then: (§1) Duplicate samples of human recombinant CYP enzyme isotypes CYP1A2, CYP2B6, CYP2C8, CYP2C9, CYP2C19, CYP2D6, CYP3A4, CYP3A5 (10–30 pmol/mL) with NADPH as cofactor were incubated with fexinidazole, fexinidazole sulfoxide, or fexinidazole sulfone at a concentration of 1.0 µM for up to 60 min (pH 7.4, 37°C). Detection of the compounds was via HPLC-MS.

For a further series, the target named is CYP2B6 (Homo sapiens, UniProt P20813). Kind of series: In vitro CYP-450 metabolism. The series is classed as in vitro ADME. As to conditions: 1.0 µM, up to 60 min. The method, then:
as §1

Another series deals with CYP2C19 (Homo sapiens, UniProt P33261). Kind of series: In vitro CYP-450 metabolism. Particulars: 1.0 µM, up to 60 min. The series is classed as in vitro ADME. The procedure:
as §1

For the next series, the target named is CYP2C8 (Homo sapiens, UniProt P10632). Kind of series: In vitro CYP-450 metabolism. It is filed as in vitro ADME. As to conditions: 1.0 µM, up to 60 min. The method, then:
as §1

The next series concerns the target CYP2C9 (Homo sapiens, UniProt P11712). Kind of series: In vitro CYP-450 metabolism. The series is classed as in vitro ADME. As to conditions: 1.0 µM, up to 60 min. The method, then:
as §1

The target in another series is CYP3A4 (Homo sapiens, UniProt P08684). Kind of series: In vitro CYP-450 metabolism. The series is classed as in vitro ADME. As to conditions: 1.0 µM, up to 60 min. The method, then: as §1
The next series deals with CYP3A5 (Homo sapiens, UniProt P20815). As to the kind of experiment: In vitro CYP-450 metabolism. As to conditions: 1.0 µM, up to 60 min. It is filed as in vitro ADME. The method, then: as §1
Series [2] in a line: Respiratory safety (plethysmography). Particulars: single oral dose.
Description: Respiratory parameters were assessed in the rat [42]. Groups of eight male rats (Crl:CD(SD)BR), aged about 8 weeks on the day of dosing, were administered doses of 100, 300, or 1000 mg/kg of fexinidazole by oral gavage. A predetermined standard set of respiratory parameters was acquired continuously from individual animals housed in plethysmographic chambers. […] After treatment, values were extracted every 30 min up to 4 h. Body weights were recorded on the day of treatment for calculation of dose volumes and for calculation of tidal and minute volumes per kg of body weight.
On the day of dosing, animals were placed in individual plethysmographic chambers. After
an acclimation period of at least 1 hour, and once respiratory parameters had stabilized,
recording of respiratory signals was started and basal data were recorded for at least 30
minutes. Animals were taken from the chambers, orally dosed and placed again in the
chambers for at least 4 hours. […]
the time point was not extracted. Basal values were calculated as the mean of values […]
were extracted every 30 minutes up to 4 hours. The following parameters were calculated […]
− Minute volume (MV, mL/kg/min calculated as TV*f)
− Enhanced Pause (Penh, calculated as ((ET/RT)-1)*(PEF/PIF))
Body weight (grams) was recorded on the day of treatment for calculation of dose volumes […]

Chain of CYP2C8 (P10632 whole entry): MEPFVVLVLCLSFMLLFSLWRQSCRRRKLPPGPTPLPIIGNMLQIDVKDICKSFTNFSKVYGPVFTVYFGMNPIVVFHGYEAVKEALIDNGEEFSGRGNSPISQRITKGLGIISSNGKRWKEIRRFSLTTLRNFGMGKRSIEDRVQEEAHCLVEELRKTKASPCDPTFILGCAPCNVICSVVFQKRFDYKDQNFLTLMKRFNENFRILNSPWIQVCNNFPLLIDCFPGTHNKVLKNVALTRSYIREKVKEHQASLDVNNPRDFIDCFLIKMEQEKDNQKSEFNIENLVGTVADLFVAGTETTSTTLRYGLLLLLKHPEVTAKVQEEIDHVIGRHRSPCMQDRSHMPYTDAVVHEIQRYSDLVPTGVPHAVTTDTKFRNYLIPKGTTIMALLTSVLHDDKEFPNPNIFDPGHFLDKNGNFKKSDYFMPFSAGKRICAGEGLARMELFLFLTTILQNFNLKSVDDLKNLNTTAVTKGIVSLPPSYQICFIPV
Chain of CYP3A5 (P20815 whole entry): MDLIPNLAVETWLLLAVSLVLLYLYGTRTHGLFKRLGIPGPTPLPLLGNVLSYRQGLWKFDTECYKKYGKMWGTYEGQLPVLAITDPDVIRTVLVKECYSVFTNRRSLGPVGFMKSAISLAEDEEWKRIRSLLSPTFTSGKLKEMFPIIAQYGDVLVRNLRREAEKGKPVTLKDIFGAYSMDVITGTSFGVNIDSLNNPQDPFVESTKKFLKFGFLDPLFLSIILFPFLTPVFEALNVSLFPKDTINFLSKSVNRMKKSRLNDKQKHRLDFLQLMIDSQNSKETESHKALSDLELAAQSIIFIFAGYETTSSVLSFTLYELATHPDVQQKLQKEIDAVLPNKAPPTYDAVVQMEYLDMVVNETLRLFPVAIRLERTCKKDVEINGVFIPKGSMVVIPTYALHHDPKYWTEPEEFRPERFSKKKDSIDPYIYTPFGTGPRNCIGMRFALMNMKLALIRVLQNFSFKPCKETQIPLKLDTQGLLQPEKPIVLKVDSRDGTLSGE
Chain of CYP3A4 (P08684 whole entry): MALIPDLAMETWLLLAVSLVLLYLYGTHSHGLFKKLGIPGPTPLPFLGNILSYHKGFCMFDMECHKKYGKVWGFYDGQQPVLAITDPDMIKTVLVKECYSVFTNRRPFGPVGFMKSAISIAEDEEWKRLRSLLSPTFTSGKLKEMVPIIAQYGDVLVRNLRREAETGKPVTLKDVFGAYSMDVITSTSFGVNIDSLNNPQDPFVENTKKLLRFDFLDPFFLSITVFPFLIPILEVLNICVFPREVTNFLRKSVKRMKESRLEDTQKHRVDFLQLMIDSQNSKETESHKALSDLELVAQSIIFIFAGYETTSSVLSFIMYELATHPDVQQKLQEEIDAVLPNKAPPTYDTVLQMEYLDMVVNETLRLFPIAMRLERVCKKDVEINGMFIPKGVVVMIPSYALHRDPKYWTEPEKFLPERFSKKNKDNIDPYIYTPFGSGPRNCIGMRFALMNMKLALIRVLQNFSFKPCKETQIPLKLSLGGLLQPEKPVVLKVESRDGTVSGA
Chain of CYP2C19 (P33261 whole entry): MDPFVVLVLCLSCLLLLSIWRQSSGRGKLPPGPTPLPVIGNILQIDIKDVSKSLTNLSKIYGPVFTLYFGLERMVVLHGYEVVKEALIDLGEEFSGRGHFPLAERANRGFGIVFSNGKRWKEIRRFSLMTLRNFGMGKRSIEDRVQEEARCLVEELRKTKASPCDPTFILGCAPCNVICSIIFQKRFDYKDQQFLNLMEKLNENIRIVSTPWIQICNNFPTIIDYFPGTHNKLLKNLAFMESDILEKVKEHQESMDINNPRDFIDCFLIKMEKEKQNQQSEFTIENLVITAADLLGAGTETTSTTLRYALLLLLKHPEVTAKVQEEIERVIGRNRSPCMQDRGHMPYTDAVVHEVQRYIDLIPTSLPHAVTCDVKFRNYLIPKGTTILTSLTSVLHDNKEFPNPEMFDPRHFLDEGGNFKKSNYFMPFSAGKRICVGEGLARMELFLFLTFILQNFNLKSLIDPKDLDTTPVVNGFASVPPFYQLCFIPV
Chain of CYP2C9 (P11712 whole entry): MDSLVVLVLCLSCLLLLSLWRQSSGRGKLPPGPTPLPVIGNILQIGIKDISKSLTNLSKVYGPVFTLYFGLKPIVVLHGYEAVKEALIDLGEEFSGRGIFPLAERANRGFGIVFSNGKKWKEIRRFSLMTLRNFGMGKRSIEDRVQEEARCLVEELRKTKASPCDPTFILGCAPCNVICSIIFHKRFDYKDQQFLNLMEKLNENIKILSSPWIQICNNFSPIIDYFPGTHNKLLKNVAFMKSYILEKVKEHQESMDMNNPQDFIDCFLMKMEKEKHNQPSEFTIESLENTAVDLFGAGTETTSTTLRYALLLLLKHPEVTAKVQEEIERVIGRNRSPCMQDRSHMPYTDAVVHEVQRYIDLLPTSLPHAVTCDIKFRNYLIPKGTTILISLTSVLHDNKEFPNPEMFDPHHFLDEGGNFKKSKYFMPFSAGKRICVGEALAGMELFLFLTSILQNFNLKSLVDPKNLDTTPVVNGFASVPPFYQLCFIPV
Chain of CYP2B6 (P20813 whole entry): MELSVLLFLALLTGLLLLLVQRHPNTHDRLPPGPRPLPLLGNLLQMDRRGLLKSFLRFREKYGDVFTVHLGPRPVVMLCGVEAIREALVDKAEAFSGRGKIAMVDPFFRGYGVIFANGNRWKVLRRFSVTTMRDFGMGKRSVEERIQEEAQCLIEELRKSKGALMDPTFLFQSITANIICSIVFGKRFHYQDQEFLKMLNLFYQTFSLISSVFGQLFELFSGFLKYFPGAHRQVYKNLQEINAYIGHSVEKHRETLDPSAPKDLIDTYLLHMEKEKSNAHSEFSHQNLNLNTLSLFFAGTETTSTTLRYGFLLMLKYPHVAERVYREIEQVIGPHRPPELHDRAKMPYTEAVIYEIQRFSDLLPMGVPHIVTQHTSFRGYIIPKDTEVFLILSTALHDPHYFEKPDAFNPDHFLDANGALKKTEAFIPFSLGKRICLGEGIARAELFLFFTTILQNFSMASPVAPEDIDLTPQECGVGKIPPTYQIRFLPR
Chain of CYP1A2 (P05177 whole entry): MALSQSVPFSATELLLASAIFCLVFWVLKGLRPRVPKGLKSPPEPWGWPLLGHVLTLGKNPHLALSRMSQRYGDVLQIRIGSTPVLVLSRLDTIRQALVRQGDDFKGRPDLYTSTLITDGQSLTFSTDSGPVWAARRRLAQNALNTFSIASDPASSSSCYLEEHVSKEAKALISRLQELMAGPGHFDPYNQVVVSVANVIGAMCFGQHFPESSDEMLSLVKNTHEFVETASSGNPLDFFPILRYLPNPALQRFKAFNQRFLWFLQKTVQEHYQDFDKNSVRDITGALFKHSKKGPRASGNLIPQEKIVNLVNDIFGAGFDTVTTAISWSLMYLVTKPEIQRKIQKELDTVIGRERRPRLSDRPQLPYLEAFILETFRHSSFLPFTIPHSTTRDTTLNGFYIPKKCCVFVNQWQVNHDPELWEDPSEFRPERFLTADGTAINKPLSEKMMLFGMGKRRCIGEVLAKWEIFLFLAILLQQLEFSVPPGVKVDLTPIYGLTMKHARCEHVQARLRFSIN

One may read the half-life as how long it takes for the measured level to halve. With `CSc1ccc(OCc2ncc([N+](=O)[O-])n2C)cc1` [Fexinidazole, 1-methyl-2-((p-(methylthio)phenoxy)methyl)-5-nitroimidazole], the half-life at 1 µM in [1] was found to be 1.2 min. Further, the CLint scaled at 1 µM in [1] (read-out: CLint in vitro) was above 3000 mL/min/kg. For the same compound, the hepatocyte CLint at 1 µM in series [1] (read-out: CLint in vitro) stood at 602 µL/min/1e6 cells. Moreover, the “metabolism by the enzyme” value is “extensively metabolised” on CYP1A2; “extensively metabolised” at CYP2B6; “extensively metabolised” on CYP2C19; “inactive” on CYP2C8; “inactive” at CYP2C9; “extensively metabolised” on CYP3A4. The “metabolism by the enzyme” value on CYP3A5 was “extensively metabolised”. In series [2], the “NOEL on respiratory parameters” value stood at 1000 mg/kg.
